Laboratory results taken from patent US11351178B2, “Selective HDAC6 inhibitors” (ITALFARMACO S.P.A., priority 2017, dated 2022).

What was measured:
[1] = biological target: T1, recombinant human HDAC6 (Homo sapiens, UniProt Q9UBN7); assay: Enzymatic screening on recombinant human HDAC6; assay type: biochemical; conditions: Table 2; read-out: HDAC6 IC50
T1 sequence (Q9UBN7 1-1215): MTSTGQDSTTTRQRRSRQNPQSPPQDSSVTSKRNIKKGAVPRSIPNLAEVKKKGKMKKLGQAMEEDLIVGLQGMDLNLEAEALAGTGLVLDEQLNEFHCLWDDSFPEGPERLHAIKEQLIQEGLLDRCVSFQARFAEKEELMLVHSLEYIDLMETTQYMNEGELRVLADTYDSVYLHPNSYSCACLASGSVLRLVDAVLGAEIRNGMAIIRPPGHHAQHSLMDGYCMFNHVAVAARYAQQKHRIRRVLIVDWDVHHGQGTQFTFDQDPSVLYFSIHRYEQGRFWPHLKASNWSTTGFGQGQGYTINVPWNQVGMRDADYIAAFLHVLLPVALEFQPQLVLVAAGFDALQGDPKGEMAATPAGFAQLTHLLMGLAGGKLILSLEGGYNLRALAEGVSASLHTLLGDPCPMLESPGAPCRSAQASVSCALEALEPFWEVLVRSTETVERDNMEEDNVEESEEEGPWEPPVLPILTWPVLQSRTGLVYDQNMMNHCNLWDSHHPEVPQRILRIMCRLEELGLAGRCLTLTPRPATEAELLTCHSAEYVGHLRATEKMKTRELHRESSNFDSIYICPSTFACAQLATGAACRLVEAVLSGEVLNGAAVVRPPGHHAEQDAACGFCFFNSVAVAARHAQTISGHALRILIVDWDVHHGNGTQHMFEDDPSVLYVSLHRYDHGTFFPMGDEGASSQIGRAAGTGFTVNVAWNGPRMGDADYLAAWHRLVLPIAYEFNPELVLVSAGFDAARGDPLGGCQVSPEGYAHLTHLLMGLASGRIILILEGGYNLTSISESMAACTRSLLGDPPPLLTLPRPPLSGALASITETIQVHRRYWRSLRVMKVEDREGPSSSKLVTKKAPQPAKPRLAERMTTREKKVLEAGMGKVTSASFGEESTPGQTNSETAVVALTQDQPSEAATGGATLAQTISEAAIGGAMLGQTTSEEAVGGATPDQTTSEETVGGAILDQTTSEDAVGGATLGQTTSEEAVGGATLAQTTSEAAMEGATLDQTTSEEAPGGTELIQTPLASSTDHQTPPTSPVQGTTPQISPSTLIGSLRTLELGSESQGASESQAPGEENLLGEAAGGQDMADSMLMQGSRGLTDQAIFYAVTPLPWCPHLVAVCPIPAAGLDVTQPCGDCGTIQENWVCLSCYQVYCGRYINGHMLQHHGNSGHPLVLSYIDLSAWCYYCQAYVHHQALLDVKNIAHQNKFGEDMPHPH
How it was run: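 Deacetylase activity of recombinant human isoforms is measured with FLUOR DE LYS, FLUOR DE LYS-Green or trifluoroacetyl-L-lysine substrates, supplied at 2× in 25 mM Tris-HCl, pH 8, 130 mM NaCl, 0.05% Tween-20, 10% glycerol. Both the enzyme-compound preincubation, of isoform-specific length, and the substrate reaction run at 30 °C.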

[2] = test system: B 697 promyelocytic cell line; assay: Cytotoxicity on 697 cell line (CellTiter 96); assay type: cell-based; conditions: 72 hours incubation, read-out: 697 TOXICITY
Procedure: (§1) Cytotoxic activity was evaluated on B 697 […] cell line for all synthesized compounds and on peripheral blood mononuclear cells (PBMCs) for compounds showing a good potency/selectivity profile.
(§2) Cells were seeded in plate (2×10^4 cells per well for 697, 5×10^5 cells per well for PBMCs). The test compounds (concentrations from 1.5 nM to 10000 nM for PBMCs and from 1 nM to 10000 nM for 697) were added after 24 hours and incubated 72 hours. The molecules cytotoxic activity was evaluated using CellTiter 96© Aqueous One Solution Cell Proliferation Assay (Promega), which measures the mitochondria function, following the manufacturer's instructions.

[3] = test system: peripheral blood mononuclear cells (PBMCs); assay: Cytotoxicity on PBMCs (CellTiter 96); assay type: cell-based; conditions: PBMC, 72 h; read-out: PBMC TOXICITY (72 h)
Procedure: as §1, §2

[4] = Stability to Phase I metabolism in rat S9 liver fraction; assay type: in vitro ADME; conditions: after 90 min, 37° C.
How it was run: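 Phase I stability in human and rat hepatic S9 at 37 °C, sampled up to 90 min. Samples were stopped with acidified acetonitrile on ice, then quantified by HPLC-UV or LC-MS/MS.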

[5] = Stability in rat plasma; assay type: in vitro ADME; conditions: after 4 hours, 37° C.
How it was run: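 Compounds incubated at 37° C in rat or human plasma at 50 μM (UV/HPLC) or 1 or 2 μM (LC-MS/MS) for 0–4 h. Reaction stopped with acidified acetonitrile on ice; percent remaining versus initial amount and plasma half-life calculated.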

| IC50 [1] [nM] | residual percentage in rat S9 fraction [4] [%] | residual percentage in rat plasma [5] [%] | SMILES | IC50 [2] [nM] | IC50 [3] [nM] |
| --- | --- | --- | --- | --- | --- |
| 22 | 53 | 10 | O=C(NO)c1cc(F)c(Cn2nnc(-c3nccc4ccccc34)n2)c(F)c1 [comp. 93, 3,5-difluoro-4-[[5-(1-isoquinolyl)tetrazol-2-yl]methyl]benzenecarbohydroxamic acid] | > 10000 | > 10000 |
| 61 | – | – | COC(=O)c1ccc(-c2nnn(Cc3ccc(C(=O)NO)cc3)n2)nc1 [comp. 156, methyl 6-[2-[[4-(hydroxycarbamoyl)phenyl]methyl]tetrazol-5-yl]pyridine-3-carboxylate] | 1570 | > 10000 |
| 1 | 44 | 68 | Nc1ccc(-c2nnn(Cc3ccc(C(=O)NO)cc3)n2)cc1 [comp. 169, 4-[[5-(4-aminophenyl)tetrazol-2-yl]methyl]benzenecarbohydroxamic acid] | 271 | 24 |
| 10 | – | – | Cn1c(Sc2c(F)cc(C(=O)NO)cc2F)nnc1-c1cccc(CN2CCCCC2)c1 [comp. 181, 3,5-difluoro-4-[[4-methyl-5-[3-(1-piperidylmethyl)phenyl]-1,2,4-triazol-3-yl]sulfanyl]benzenecarbohydroxamic acid] | 50300 | > 10000 |
| 16 | – | – | Cn1c(Sc2c(F)cc(C(=O)NO)cc2F)nnc1-c1cccc(CN2CCOCC2)c1 [comp. 182, 3,5-difluoro-4-[[4-methyl-5-[3-(morpholinomethyl)phenyl]-1,2,4-triazol-3-yl]sulfanyl]benzenecarbohydroxamic acid] | 50300 | ≥ 100000 |
| 3 | 8 | 93 | O=C(NO)c1ccc(Cn2nnnc2-c2ccc3ccccc3n2)cc1 [comp. 91, 4-[[5-(2-quinolyl)tetrazol-1-yl]methyl]benzenecarbohydroxamic acid] | 783 | 812 |
| 4 | 75 | 116 | Cc1nc(N2CCOCC2)sc1-c1nnc(Cc2ccc(C(=O)NO)cc2)o1 [comp. 75, 4-[[5-(4-methyl-2-morpholino-thiazol-5-yl)-1,3,4-oxadiazol-2-yl]methyl]benzenecarbohydroxamic acid] | 1200 | 514 |
| 8 | – | – | Cn1c(Sc2c(F)cc(C(=O)NO)cc2F)nnc1-c1c(F)cccc1F [comp. 165, 4-[[5-(2,6-difluorophenyl)-4-methyl-1,2,4-triazol-3-yl]sulfanyl]-3,5-difluoro-benzenecarbohydroxamic acid] | 55300 | > 10000 |
| 79 | 75 | 106 | Cc1nc(N2CCOCC2)sc1-c1nnc(Sc2c(F)cc(C(=O)NO)cc2F)n1C [comp. 9, 3,5-difluoro-N-hydroxy-4-((4-methyl-5-(4-methyl-2-morpholinothiazo-5-yl)-4H-1,2,4-triazol-3-yl)thio)benzamide] | > 10000 | > 10000 |
| 4 | – | – | NCc1ccc(-c2nnn(Cc3c(F)cc(C(=O)NO)cc3F)n2)cc1 [comp. 175, 4-[[5-[4-(aminomethyl)phenyl]tetrazol-2-yl]methyl]-3,5-difluoro-benzenecarbohydroxamic acid] | 10100 | 1260 |
| 20 | – | – | COc1cccc(-c2nnc(Sc3ccc(C(=O)NO)cc3)n2C)c1 [comp. 78, 4-[[5-(3-methoxyphenyl)-4-methyl-1,2,4-triazol-3-yl]sulfanyl]benzenecarbohydroxamic acid] | 22200 | 6000 |
| 8 | – | – | Nc1ccc(-c2nnnn2Cc2c(F)cc(C(=O)NO)cc2F)cc1 [comp. 172, 4-[[5-(4-aminophenyl)tetrazol-1-yl]methyl]-3,5-difluoro-benzenecarbohydroxamic acid] | 61400 | > 10000 |
| 2 | – | – | NCc1ccc(-c2nnn(Cc3ccc(C(=O)NO)cc3)n2)cc1 [comp. 173, 4-[[5-[4-(aminomethyl)phenyl]tetrazol-2-yl]methyl]benzenecarbohydroxamic acid] | 1890 | 948 |
| 17 | – | – | CN(Cc1ccccc1)Cc1cccc(-c2nnc(Sc3c(F)cc(C(=O)NO)cc3F)n2C)c1 [comp. 184, 4-[[5-[3-[[benzyl(methyl)amino]methyl]phenyl]-4-methyl-1,2,4-triazol-3-yl]sulfanyl]-3,5-difluoro-benzenecarbohydroxamic acid] | 14700 | ≥ 100000 |
| 21 | – | – | Cn1c(Sc2ccc(C(=O)NO)cc2)nnc1-c1ccc2c(c1)OCO2 [comp. 84, 4-[[5-(1,3-benzodioxol-5-yl)-4-methyl-1,2,4-triazol-3-yl]sulfanyl]benzenecarbohydroxamic acid] | 5200 | 4500 |
| 27 | – | – | COC(=O)c1ccc(-c2nnnn2Cc2ccc(C(=O)NO)cc2)nc1 [comp. 157, methyl 6-[1-[[4-(hydroxycarbamoyl)phenyl]methyl]tetrazol-5-yl]pyridine-3-carboxylate] | 913 | 940 |
| 21 | – | – | Cn1c(Sc2c(F)cc(C(=O)NO)cc2F)nnc1C1(c2ccccn2)CC1 [comp. 177, 3,5-difluoro-4-[[4-methyl-5-[1-(2-pyridyl)cyclopropyl]-1,2,4-triazol-3-yl]sulfanyl]benzenecarbohydroxamic acid] | 50300 | > 10000 |
| 9 | – | – | CN1CCN(c2cccc(-c3nnc(Sc4c(F)cc(C(=O)NO)cc4F)n3C)c2)CC1 [comp. 166, 3,5-difluoro-4-[[4-methyl-5-[3-(4-methylpiperazin-1-yl)phenyl]-1,2,4-triazol-3-yl]sulfanyl]benzenecarbohydroxamic acid] | 61400 | > 10000 |
| 32 | – | – | COC(=O)c1ccc(Cc2nnn(Cc3c(F)cc(C(=O)NO)cc3F)n2)cc1 [comp. 154, methyl 4-[[2-[[2,6-difluoro-4-(hydroxycarbamoyl)phenyl]methyl]tetrazol-5-yl]methyl]benzoate] | 22700 | > 10000 |
| 55 | – | – | NCc1ccc(-c2nnnn2Cc2c(F)cc(C(=O)NO)cc2F)cc1 [comp. 176, 4-[[5-[4-(aminomethyl)phenyl]tetrazol-1-yl]methyl]-3,5-difluoro-benzenecarbohydroxamic acid] | 50300 | 5300 |

| SMILES | IC50 [1] [nM] | residual percentage in rat S9 fraction [4] [%] | residual percentage in rat plasma [5] [%] | IC50 [2] [nM] | IC50 [3] [nM] |
| --- | --- | --- | --- | --- | --- |
| Cn1c(Sc2c(F)cc(C(=O)NO)cc2F)nnc1-c1ccc(CN2CCCCC2)cc1 [comp. 16, 3,5-difluoro-N-hydroxy-4-((4-methyl-5-(4-(piperidin-1-ylmethyl)phenyl)-4H-1,2,4-triazol-3-yl)thio)benzamide] | 5 | 74 | 75 | 7880 | 7500 |
